In PubChem BioAssay (NCI):
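Interpolation was linear, between the two tested concentrations surrounding the appropriate level; five concentrations were tested over 48 hours in 96-well plates. The concentration for full growth arrest is given as TGI.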

Experiments:
Assay in all cases: NCI tumour cell line growth inhibition, 48 h
HL-60(TB) leukemia = system: HL-60(TB) leukemia
ACHN renal = system: ACHN renal
SNB-78 CNS = system: SNB-78 CNS
HOP-92 NSCLC = system: HOP-92 NSCLC
IGROV1 ovarian = system: IGROV1 ovarian
A549 NSCLC = system: A549 NSCLC
SW-620 colon = system: SW-620 colon
LOX IMVI melanoma = system: LOX IMVI melanoma
UACC-62 melanoma = system: UACC-62 melanoma
KM20L2 colon = system: KM20L2 colon
NCI-H23 lung = system: NCI-H23 lung
NCI-H460 lung = system: NCI-H460 lung
EKVX NSCLC = system: EKVX NSCLC
OVCAR-3 ovarian = system: OVCAR-3 ovarian
M19-MEL melanoma = system: M19-MEL melanoma
NCI-H522 lung = system: NCI-H522 lung
CAKI-1 renal = system: CAKI-1 renal
XF 498 CNS = system: XF 498 CNS
HOP-62 NSCLC = system: HOP-62 NSCLC
U251 CNS = system: U251 CNS
MOLT-4 leukemia = system: MOLT-4 leukemia
SK-OV-3 ovarian = system: SK-OV-3 ovarian
DMS 273 small cell lung = system: DMS 273 small cell lung
SF-268 CNS = system: SF-268 CNS
786-0 renal = system: 786-0 renal
HCT-15 colon = system: HCT-15 colon
SK-MEL-5 melanoma = system: SK-MEL-5 melanoma
UO-31 renal = system: UO-31 renal
HCC-2998 colon = system: HCC-2998 colon
OVCAR-8 ovarian = system: OVCAR-8 ovarian
SNB-75 CNS = system: SNB-75 CNS
CCRF-CEM leukemia = system: CCRF-CEM leukemia
DMS 114 small cell lung = system: DMS 114 small cell lung
M14 melanoma = system: M14 melanoma
DLD-1 colon = system: DLD-1 colon
OVCAR-5 ovarian = system: OVCAR-5 ovarian
SF-295 CNS = system: SF-295 CNS
SNB-19 CNS = system: SNB-19 CNS
NCI-H226 lung = system: NCI-H226 lung
COLO 205 colon = system: COLO 205 colon
KM12 colon = system: KM12 colon
K-562 leukemia = system: K-562 leukemia
TK-10 renal = system: TK-10 renal
RPMI-8226 leukemia = system: RPMI-8226 leukemia
SF-539 CNS = system: SF-539 CNS
UACC-257 melanoma = system: UACC-257 melanoma
HOP-18 NSCLC = system: HOP-18 NSCLC
OVCAR-4 ovarian = system: OVCAR-4 ovarian
RXF 393 renal = system: RXF 393 renal
MALME-3M melanoma = system: MALME-3M melanoma
SN12C renal = system: SN12C renal
HCT-116 colon = system: HCT-116 colon
HT29 colon = system: HT29 colon
SR leukemia = system: SR leukemia
SK-MEL-28 melanoma = system: SK-MEL-28 melanoma
LXFL 529 NSCLC = system: LXFL 529 NSCLC
SK-MEL-2 melanoma = system: SK-MEL-2 melanoma
NCI/ADR-RES ovarian = system: NCI/ADR-RES ovarian
MDA-MB-231 breast = system: MDA-MB-231 breast
MCF7 breast = system: MCF7 breast
MDA-N = system: MDA-N
BT-549 breast = system: BT-549 breast
A498 renal = system: A498 renal
MDA-MB-435 = system: MDA-MB-435
T-47D breast = system: T-47D breast
DU-145 prostate = system: DU-145 prostate
HS 578T breast = system: HS 578T breast
RXF-631 renal = system: RXF-631 renal
PC-3 prostate = system: PC-3 prostate
P388/ADR leukemia = system: P388/ADR leukemia
P388 leukemia = system: P388 leukemia
SN12K1 renal = system: SN12K1 renal

COc1cccc(/C(C=O)=C(\Cl)c2ccc(OC)c(OC)c2)c1
TGI (HL-60(TB) leukemia): 20.7 µM
TGI (ACHN renal): 26.4 µM
TGI (SNB-78 CNS): 37.7 µM
TGI (HOP-92 NSCLC): 38.7 µM
TGI (IGROV1 ovarian): 41.8 µM
TGI (A549 NSCLC): 46.8 µM
TGI (SW-620 colon): 29.6 µM
TGI (LOX IMVI melanoma): 28.7 µM
TGI (UACC-62 melanoma): 17.4 µM
TGI (KM20L2 colon): 44.1 µM
TGI (NCI-H23 lung): 24.9 µM
TGI (NCI-H460 lung): 28 µM
TGI (EKVX NSCLC): 33.9 µM
TGI (OVCAR-3 ovarian): 30.2 µM
TGI (M19-MEL melanoma): 23.4 µM
TGI (NCI-H522 lung): 22.1 µM
TGI (CAKI-1 renal): 45.1 µM
TGI (XF 498 CNS): 31.1 µM
TGI (HOP-62 NSCLC): 25.1 µM
TGI (U251 CNS): 27.4 µM
TGI (MOLT-4 leukemia): 42.5 µM
TGI (SK-OV-3 ovarian): 58.8 µM
TGI (DMS 273 small cell lung): 27.3 µM
TGI (SF-268 CNS): 25.3 µM
TGI (786-0 renal): 30.7 µM
TGI (HCT-15 colon): 25.6 µM
TGI (SK-MEL-5 melanoma): 25.3 µM
TGI (UO-31 renal): 28.2 µM
TGI (HCC-2998 colon): 29.8 µM
TGI (OVCAR-8 ovarian): 30.3 µM
TGI (SNB-75 CNS): 21.3 µM
TGI (CCRF-CEM leukemia): 33.5 µM
TGI (DMS 114 small cell lung): 30.5 µM
TGI (M14 melanoma): 31.6 µM
TGI (DLD-1 colon): 25.5 µM
TGI (OVCAR-5 ovarian): 36.9 µM
TGI (SF-295 CNS): 28.9 µM
TGI (SNB-19 CNS): 16.3 µM
TGI (NCI-H226 lung): 28.1 µM
TGI (COLO 205 colon): 27.5 µM
TGI (KM12 colon): 29.1 µM
TGI (K-562 leukemia): 46.2 µM
TGI (TK-10 renal): 73 µM
TGI (RPMI-8226 leukemia): 48.8 µM
TGI (SF-539 CNS): 30.4 µM
TGI (UACC-257 melanoma): 29.3 µM
TGI (HOP-18 NSCLC): 27.8 µM
TGI (OVCAR-4 ovarian): 39.1 µM
TGI (RXF 393 renal): 25.1 µM
TGI (MALME-3M melanoma): 29 µM
TGI (SN12C renal): 27.8 µM
TGI (HCT-116 colon): 22.5 µM
TGI (HT29 colon): 27.5 µM
TGI (SR leukemia): 82.1 µM
TGI (SK-MEL-28 melanoma): 29 µM
TGI (LXFL 529 NSCLC): 24.4 µM
TGI (SK-MEL-2 melanoma): 42.8 µM

C=C1CC2(OC1=O)c1ccccc1C=Cc1ccccc12
TGI (NCI/ADR-RES ovarian): 3.06 µM
TGI (HL-60(TB) leukemia): 4.86 µM
TGI (ACHN renal): 9.83 µM
TGI (SNB-78 CNS): 9.3 µM
TGI (HOP-92 NSCLC): 3.44 µM
TGI (MDA-MB-231 breast): 5.41 µM
TGI (IGROV1 ovarian): 15.9 µM
TGI (A549 NSCLC): 23.3 µM
TGI (SW-620 colon): 4.54 µM
TGI (LOX IMVI melanoma): 4.1 µM
TGI (UACC-62 melanoma): 9.96 µM
TGI (KM20L2 colon): 20.5 µM
TGI (NCI-H23 lung): 14.7 µM
TGI (NCI-H460 lung): 25.4 µM
TGI (MCF7 breast): 6.54 µM
TGI (EKVX NSCLC): 18.3 µM
TGI (OVCAR-3 ovarian): 8.9 µM
TGI (M19-MEL melanoma): 11.8 µM
TGI (NCI-H522 lung): 3.35 µM
TGI (CAKI-1 renal): 6.08 µM
TGI (XF 498 CNS): 26.5 µM
TGI (HOP-62 NSCLC): 24.9 µM
TGI (U251 CNS): 15.5 µM
TGI (MDA-N): 4.47 µM
TGI (MOLT-4 leukemia): 5.4 µM
TGI (SK-OV-3 ovarian): 30.8 µM
TGI (DMS 273 small cell lung): 28.2 µM
TGI (BT-549 breast): 3.61 µM
TGI (SF-268 CNS): 17.4 µM
TGI (786-0 renal): 6.16 µM
TGI (HCT-15 colon): 7.77 µM
TGI (SK-MEL-5 melanoma): 16.4 µM
TGI (UO-31 renal): 15.7 µM
TGI (HCC-2998 colon): 13.5 µM
TGI (A498 renal): 25 µM
TGI (OVCAR-8 ovarian): 11.7 µM
TGI (SNB-75 CNS): 20.2 µM
TGI (MDA-MB-435): 3.37 µM
TGI (T-47D breast): 4.37 µM
TGI (CCRF-CEM leukemia): 6.58 µM
TGI (DMS 114 small cell lung): 21 µM
TGI (M14 melanoma): 10 µM
TGI (DLD-1 colon): 3.76 µM
TGI (DU-145 prostate): 23.6 µM
TGI (OVCAR-5 ovarian): 22.5 µM
TGI (SF-295 CNS): 32.1 µM
TGI (SNB-19 CNS): 29.9 µM
TGI (NCI-H226 lung): 11.2 µM
TGI (COLO 205 colon): 5.82 µM
TGI (KM12 colon): 12.3 µM
TGI (HS 578T breast): 6.29 µM
TGI (K-562 leukemia): 10.7 µM
TGI (TK-10 renal): 11.1 µM
TGI (RPMI-8226 leukemia): 8.68 µM
TGI (SF-539 CNS): 6.72 µM
TGI (UACC-257 melanoma): 10.2 µM
TGI (HOP-18 NSCLC): 27.4 µM
TGI (OVCAR-4 ovarian): 11.7 µM
TGI (RXF 393 renal): 8.12 µM
TGI (RXF-631 renal): 33.1 µM
TGI (MALME-3M melanoma): 9.71 µM
TGI (SN12C renal): 7.14 µM
TGI (HCT-116 colon): 5.4 µM
TGI (HT29 colon): 6.8 µM
TGI (SR leukemia): 9.17 µM
TGI (SK-MEL-28 melanoma): 9.32 µM
TGI (PC-3 prostate): 16.3 µM
TGI (LXFL 529 NSCLC): 7.14 µM
TGI (SK-MEL-2 melanoma): 16.5 µM

Oc1cc(O)cc(/C=C/c2ccc(O)c(O)c2)c1
TGI (NCI/ADR-RES ovarian): 51 µM
TGI (HL-60(TB) leukemia): > 28.4 µM
TGI (SNB-78 CNS): 76.5 µM
TGI (HOP-92 NSCLC): 50.3 µM
TGI (IGROV1 ovarian): 32.1 µM
TGI (A549 NSCLC): 53.4 µM
TGI (SW-620 colon): > 51.8 µM
TGI (LOX IMVI melanoma): > 41.7 µM
TGI (UACC-62 melanoma): 15 µM
TGI (KM20L2 colon): 86.1 µM
TGI (NCI-H23 lung): 40.2 µM
TGI (NCI-H460 lung): 60.5 µM
TGI (MCF7 breast): > 56.1 µM
TGI (P388/ADR leukemia): > 67.5 µM
TGI (EKVX NSCLC): > 100 µM
TGI (P388 leukemia): > 66.9 µM
TGI (OVCAR-3 ovarian): > 100 µM
TGI (M19-MEL melanoma): 41.7 µM
TGI (NCI-H522 lung): 7.17 µM
TGI (CAKI-1 renal): > 30.8 µM
TGI (HOP-62 NSCLC): 28.7 µM
TGI (U251 CNS): 42.8 µM
TGI (MOLT-4 leukemia): > 46.5 µM
TGI (SK-OV-3 ovarian): 47.7 µM
TGI (DMS 273 small cell lung): 38.9 µM
TGI (SF-268 CNS): 56.3 µM
TGI (SN12K1 renal): 18.3 µM
TGI (HCT-15 colon): > 100 µM
TGI (SK-MEL-5 melanoma): > 49.1 µM
TGI (UO-31 renal): 39.3 µM
TGI (HCC-2998 colon): 34.4 µM
TGI (A498 renal): > 70 µM
TGI (OVCAR-8 ovarian): > 100 µM
TGI (SNB-75 CNS): 51.7 µM
TGI (CCRF-CEM leukemia): 24.3 µM
TGI (DMS 114 small cell lung): 22.1 µM
TGI (DLD-1 colon): > 31.6 µM
TGI (OVCAR-5 ovarian): 20.7 µM
TGI (SF-295 CNS): 60 µM
TGI (SNB-19 CNS): > 88.4 µM
TGI (NCI-H226 lung): 42.1 µM
TGI (COLO 205 colon): > 62.1 µM
TGI (KM12 colon): 11.2 µM
TGI (K-562 leukemia): > 58.9 µM
TGI (RPMI-8226 leukemia): > 93.8 µM
TGI (SF-539 CNS): 22.9 µM
TGI (UACC-257 melanoma): > 100 µM
TGI (HOP-18 NSCLC): > 100 µM
TGI (OVCAR-4 ovarian): > 100 µM
TGI (RXF 393 renal): 45.7 µM
TGI (MALME-3M melanoma): > 100 µM
TGI (SN12C renal): 40.8 µM
TGI (HCT-116 colon): 20.9 µM
TGI (HT29 colon): 57 µM
TGI (SK-MEL-28 melanoma): > 100 µM
TGI (SK-MEL-2 melanoma): 16 µM
